A value given as a limit tells only on which side of the number the result lay.

Among the data in patent US10464947B2 (Incyte Corporation, priority 2013, dated 2019) are IC50 values, retold here.

One test has as its system KMS.12.BM cells. The experiment in a line: KMS.12.BM Cell Viability Assay (Example B1). It is filed as cell-based, human. The conditions noted are these: 3 days, Cell Titer-GLO, read-out: KMS cellular IC50. In short, it runs like this:
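KMS.12.BM human myeloma cells, 5000 cells/well in RPMI with 10% FBS, exposed to a compound concentration range for 3 days. Viable cells measured by ATP-based Cell Titer-GLO luminescence after 10 min at room temperature.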
In general terms: Cellular ATP, detected with luciferase, serves as a proxy for viable cell number.
`Cc1noc(C)c1-c1ccc2nc(N3CCC(C)(O)C3)n3c2c1OC[C@@H]3c1ccccn1` (single isomer, unassigned) [Example 146B]: the IC50 is less than 1000 nM.

Still in this test, the particulars now being: Homo sapiens, 72 h, 3 days, Cell Titer-GLO, read-out: KMS cellular IC50.
As for `Cc1noc(C)c1-c1cc(F)c2nc(N3CCC(O)C3)n3c2c1OCC3c1cccnc1` (stereo not shown) [Example 157, 1-[7-(3,5-Dimethylisoxazol-4-yl)-9-fluoro-4-pyridin-3-yl-4,5-dihydroimidazo[1,5,4-de][1,4]benzoxazin-2-yl]pyrrolidin-3-ol], the IC50 was less than 1000 nM.

For the compound `Cc1noc(C)c1-c1ccc2nc(N3CCN4CCC[C@H]4C3)n3c2c1OC[C@@H]3c1ccccn1` [Example 193A, (4S)-7-(3,5-dimethylisoxazol-4-yl)-2-[(8aS)-hexahydropyrrolo[1,2-a]pyrazin-2(1H)-yl]-4-pyridin-2-yl-4,5-dihydroimidazo[1,5,4-de][1,4]benzoxazine], the IC50 was less than 1000 nM. As to `CN[C@H]1CCN(c2nc3ccc(-c4c(C)noc4C)c4c3n2[C@@H](c2ccccn2)CO4)C1` [Example 181B, (3S)-1-[(4S)-7-(3,5-dimethylisoxazol-4-yl)-4-pyridin-2-yl-4,5-dihydroimidazo[1,5,4-de][1,4]benzoxazin-2-yl]-N-methylpyrrolidin-3-amine], the IC50 is less than 1000 nM. For `Cc1noc(C)c1-c1ccc2nc(N3CCCCC3)n3c2c1OCC3c1ccccc1` (stereo not shown) [Example 56, 7-(3,5-Dimethylisoxazol-4-yl)-4-phenyl-2-piperidin-1-yl-4,5-dihydroimidazo[1,5,4-de][1,4]benzoxazine], the IC50 was less than 1000 nM.

With `CC(=O)NC1CCN(c2nc3ccc(-c4c(C)noc4C)c4c3n2[C@@H](c2ccccn2)CO4)CC1` [Example 190, N-{1-[(4S)-7-(3,5-dimethylisoxazol-4-yl)-4-pyridin-2-yl-4,5-dihydroimidazo[1,5,4-de][1,4]benzoxazin-2-yl]piperidin-4-yl}acetamide], the IC50 was less than 1000 nM.

As to `Cc1noc(C)c1-c1ccc2nc(N3CCN(CC(=O)N(C)C)CC3)n3c2c1OC[C@@H]3c1ccccn1` [Example 151, 2-{4-[(4S)-7-(3,5-Dimethylisoxazol-4-yl)-4-pyridin-2-yl-4,5-dihydroimidazo[1,5,4-de][1,4]benzoxazin-2-yl]piperazin-1-yl}-N,N-dimethylacetamide], the IC50 is less than 1000 nM. Still for that read-out and setting: then `COCC(=O)N(C)[C@@H]1CCN(c2nc3ccc(-c4c(C)noc4C)c4c3n2[C@@H](c2ccccn2)CO4)C1` [Example 221, N-{(3R)-1-[(4S)-7-(3,5-dimethylisoxazol-4-yl)-4-pyridin-2-yl-4,5-dihydroimidazo[1,5,4-de][1,4]benzoxazin-2-yl]pyrrolidin-3-yl}-2-methoxy-N-methylacetamide], with less than 1000 nM; and `Cc1noc(C)c1-c1ccc2nc(N3CCN(c4ccccc4)CC3)n3c2c1OC[C@@H]3c1ccccn1` [Example 178, (4S)-7-(3,5-dimethylisoxazol-4-yl)-2-(4-phenylpiperazin-1-yl)-4-pyridin-2-yl-4,5-dihydroimidazo[1,5,4-de][1,4]benzoxazine], with less than 1000 nM; and `CCOC(=O)N1CCN(c2nc3ccc(-c4c(C)noc4C)c4c3n2[C@@H](c2ccccn2)CO4)CC1` [Example 167, ethyl 4-[(4S)-7-(3,5-dimethylisoxazol-4-yl)-4-pyridin-2-yl-4,5-dihydroimidazo[1,5,4-de][1,4]benzoxazin-2-yl]piperazine-1-carboxylate], with less than 1000 nM. Same read-out and setting: then `Cc1noc(C)c1-c1cc(Br)c2[nH]c(=O)n3c2c1OCC3c1ccccc1` (stereo not shown) [Example 45, 9-Bromo-7-(3,5-Dimethylisoxazol-4-yl)-4-phenyl-4,5-dihydroimidazo[1,5,4-de][1,4]benzoxazin-2(1H)-one], with less than 1000 nM; and `Cc1noc(C)c1-c1ccc2nc(N3CC[C@@H](N(C)C)C3)n3c2c1OC[C@@H]3c1ccccn1` [Example 180A, (3R)-1-[(4S)-7-(3,5-dimethylisoxazol-4-yl)-4-pyridin-2-yl-4,5-dihydroimidazo[1,5,4-de][1,4]benzoxazin-2-yl]-N,N-dimethylpyrrolidin-3-amine], with less than 1000 nM. Still for that read-out and setting: as for `Cc1noc(C)c1-c1ccc2nc(N3CC[C@H](NC(=O)OC(C)(C)C)C3)n3c2c1OC[C@@H]3c1ccccn1` [Example 182B, tert-butyl {(3S)-1-[(4S)-7-(3,5-dimethylisoxazol-4-yl)-4-pyridin-2-yl-4,5-dihydroimidazo[1,5,4-de][1,4]benzoxazin-2-yl]pyrrolidin-3-yl}carbamate], the figure is less than 1000 nM. `Cc1noc(C)c1-c1ccc2[nH]c(=O)n3c2c1OCC3c1ccc(F)cn1` (stereo not shown) [Example 19, 7-(3,5-Dimethylisoxazol-4-yl)-4-(5-fluoropyridin-2-yl)-4,5-dihydroimidazo[1,5,4-de][1,4]benzoxazin-2(1H)-one]: the IC50 was less than 1000 nM. Still for that read-out and setting: as for `CC(=O)N1CCN(c2nc3ccc(-c4c(C)noc4C)c4c3n2[C@@H](c2ccccn2)CO4)CC1` [Example 224, (4S)-2-(4-acetylpiperazin-1-yl)-7-(3,5-dimethylisoxazol-4-yl)-4-pyridin-2-yl-4,5-dihydroimidazo[1,5,4-de][1,4]benzoxazine], the figure is less than 1000 nM. With `Cc1noc(C)c1-c1ccc2nc(N3CCCC3)n3c2c1OC[C@@H]3c1ccccn1` [Example 162, (4S)-7-(3,5-dimethylisoxazol-4-yl)-4-pyridin-2-yl-2-pyrrolidin-1-yl-4,5-dihydroimidazo[1,5,4-de][1,4]benzoxazine], the IC50 is less than 1000 nM.

In the case of `Cc1noc(C)c1-c1ccc2[nH]c(=O)n3c2c1OCC3c1ccccc1OCC(=O)N(C)C` (stereo not shown) [Example 51, 2-{2-[7-(3,5-Dimethylisoxazol-4-yl)-2-oxo-1,2,4,5-tetrahydroimidazo[1,5,4-de][1,4]benzoxazin-4-yl]phenoxy}-N,N-dimethylacetamide], the IC50 was less than 1000 nM. Consider `CCNC(=O)COc1ccccc1C1COc2c(-c3c(C)noc3C)ccc3[nH]c(=O)n1c23` (stereo not shown) [Example 22, 2-{2-[7-(3,5-Dimethylisoxazol-4-yl)-2-oxo-1,2,4,5-tetrahydroimidazo[1,5,4-de][1,4]benzoxazin-4-yl]phenoxy}-N-ethylacetamide], for which the IC50 was less than 1000 nM.

For `Cc1noc(C)c1-c1ccc2nc(N3CCC(NC(=O)C(C)C)CC3)n3c2c1OCC3c1ccccn1` (stereo not shown) [Example 244], the IC50 is less than 1000 nM.

Take `Cc1noc(C)c1-c1ccc2[nH]c(=O)n3c2c1OCC3C1CCCCC1` (stereo not shown) [Example 17, 4-Cyclohexyl-7-(3,5-dimethylisoxazol-4-yl)-4,5-dihydroimidazo[1,5,4-de][1,4]benzoxazin-2(1H)-one]: the IC50 was less than 1000 nM. Same read-out and setting: then `Cc1noc(C)c1-c1ccc2nc(N3CCN(S(N)(=O)=O)CC3)n3c2c1OC[C@@H]3c1ccccn1` [Example 229, 4-[(4S)-7-(3,5-dimethylisoxazol-4-yl)-4-pyridin-2-yl-4,5-dihydroimidazo[1,5,4-de][1,4]benzoxazin-2-yl]piperazine-1-sulfonamide], with less than 1000 nM; and `Cc1noc(C)c1-c1ccc2nc(N3CC[C@@H](NC(=O)C4CCC4)C3)n3c2c1OC[C@@H]3c1ccccn1` [Example 210, N-{(3R)-1-[(4S)-7-(3,5-dimethylisoxazol-4-yl)-4-pyridin-2-yl-4,5-dihydroimidazo[1,5,4-de][1,4]benzoxazin-2-yl]pyrrolidin-3-yl}cyclobutanecarboxamide], with less than 1000 nM; and `Cc1noc(C)c1-c1ccc2nc(N3CC[C@@H](NC(=O)C(F)(F)F)C3)n3c2c1OC[C@@H]3c1ccccn1` [Example 203, N-{(3R)-1-[(4S)-7-(3,5-dimethylisoxazol-4-yl)-4-pyridin-2-yl-4,5-dihydroimidazo[1,5,4-de][1,4]benzoxazin-2-yl]pyrrolidin-3-yl}-2,2,2-trifluoroacetamide], with less than 1000 nM. As to `Cc1noc(C)c1-c1ccc2nc(C3CCN(C(=O)OC(C)(C)C)CC3)n3c2c1OC[C@@H]3c1ccccn1` [Example 100, tert-Butyl 4-[(4S)-7-(3,5-dimethylisoxazol-4-yl)-4-pyridin-2-yl-4,5-dihydroimidazo[1,5,4-de][1,4]benzoxazin-2-yl]piperidine-1-carboxylate], the IC50 is less than 1000 nM. The same measure, in the same setting: then `Cc1noc(C)c1-c1ccc2nc(C3CCNCC3)n3c2c1OC[C@@H]3c1ccccn1` [Example 103], with less than 1000 nM. Same read-out and setting: then `Cc1noc(C)c1-c1ccc2nc(N3CCC(C#N)CC3)n3c2c1OC[C@@H]3c1ccccn1` [Example 175, 1-[(4S)-7-(3,5-dimethylisoxazol-4-yl)-4-pyridin-2-yl-4,5-dihydroimidazo[1,5,4-de][1,4]benzoxazin-2-yl]piperidine-4-carbonitrile], with less than 1000 nM; and `Cc1noc(C)c1-c1ccc2[nH]c(=O)n3c2c1OC(CO)C3c1ccccn1` (single isomer, unassigned) [Example 62B, 7-(3,5-Dimethylisoxazol-4-yl)-5-(hydroxymethyl)-4-pyridin-2-yl-4,5-dihydroimidazo[1,5,4-de][1,4]benzoxazin-2(1H)-one], with less than 1000 nM. On the same count and under the same terms, as for `Cc1noc(C)c1-c1ccc2[nH]c(=O)n3c2c1OCC3c1ccc(F)cc1` (stereo not shown) [Example 49, 7-(3,5-Dimethylisoxazol-4-yl)-4-(4-fluorophenyl)-4,5-dihydroimidazo[1,5,4-de][1,4]benzoxazin-2(1H)-one], the figure is less than 1000 nM; as for `Cc1noc(C)c1-c1ccc2nc(N3CCOCC3)n3c2c1OCC3c1ccccc1` (stereo not shown) [Example 53, 7-(3,5-Dimethylisoxazol-4-yl)-2-morpholin-4-yl-4-phenyl-4,5-dihydroimidazo[1,5,4-de][1,4]benzoxazine], less than 1000 nM.

The same test, now with this note: Homo sapiens, KMS-12-BM, 72 h, 3 days, Cell Titer-GLO, read-out: KMS cellular IC50.
With `Cc1noc(C)c1-c1ccc2nc(N3CCC(C)(O)C3)n3c2c1OC[C@@H]3c1ccccn1` (mixture of isomers) [Example 146C, 1-[(4S)-7-(3,5-Dimethylisoxazol-4-yl)-4-pyridin-2-yl-4,5-dihydroimidazo[1,5,4-de][1,4]benzoxazin-2-yl]-3-methylpyrrolidin-3-ol], the IC50 was less than 1000 nM. On the same count and under the same terms, as for `Cc1noc(C)c1-c1ccc2nc(N3CCNCC3)n3c2c1OCC3c1ccccc1` (stereo not shown) [Example 40, 7-(3,5-Dimethylisoxazol-4-yl)-4-phenyl-2-piperazin-1-yl-4,5-dihydroimidazo[1,5,4-de][1,4]benzoxazine], the figure is less than 1000 nM.

What is called IC50 is the concentration that gives 50% inhibition.
